Legend:
HT-29 [1] = assay: Antiproliferative activity against human HT-29 cells at 10 uM after 72 hrs by MTS assay; assay type: functional; conditions: HT-29, 72 h
Tubulin = Tubulin (Bos taurus, UniProt Q6B856+Q862L2+Q862F3); assay: Inhibition of bovine tubulin polymerization after 1 hr by fluorescence spectrometry; assay type: protein assay
[2] = Growth inhibition of human PC3 cells after 48 hrs by sulforhodamine B assay; assay type: functional; conditions: PC-3, 48 h
[3] = Growth inhibition of human COLO205 cells after 48 hrs by sulforhodamine B assay; assay type: functional; conditions: COLO 205, 48 h
[4] = Growth inhibition of human HCT15 cells after 48 hrs by sulforhodamine B assay; assay type: functional; conditions: HCT-15, 48 h
A498 = assay: Growth inhibition of human A498 cells after 48 hrs by sulforhodamine B assay; assay type: functional; conditions: A498, 48 h
A549 = assay: Growth inhibition of human A549/ATCC cells after 48 hrs by sulforhodamine B assay; assay type: functional; conditions: A549, 48 h
HT-29 [5] = assay: Growth inhibition of human HT-29 cells after 48 hrs by sulforhodamine B assay; assay type: functional; conditions: HT-29, 48 h
K562 = assay: Growth inhibition of human K562 cells after 48 hrs by sulforhodamine B assay; assay type: functional; conditions: K562, 48 h
[6] = Growth inhibition of human HCT116 cells after 48 hrs by sulforhodamine B assay; assay type: functional; conditions: HCT-116, 48 h
[7] = Growth inhibition of human SNB75 cells after 48 hrs by sulforhodamine B assay; assay type: functional; conditions: SNB-75, 48 h
SR = assay: Growth inhibition of human SR cells after 48 hrs by sulforhodamine B assay; assay type: functional
NCI-H522 = assay: Growth inhibition of human NCI-H522 cells after 48 hrs by sulforhodamine B assay; assay type: functional; conditions: NCI-H522, 48 h
SK-MEL-5 = assay: Growth inhibition of human SK-MEL-5 cells after 48 hrs by sulforhodamine B assay; assay type: functional; conditions: SK-MEL-5, 48 h
[8] = Growth inhibition of human HL-60(TB) cells after 48 hrs by sulforhodamine B assay; assay type: functional; conditions: HL-60, 48 h
[9] = Growth inhibition of human OVCAR3 cells after 48 hrs by sulforhodamine B assay; assay type: functional; conditions: OVCAR-3, 48 h
U-251 = assay: Growth inhibition of human U251 cells after 48 hrs by sulforhodamine B assay; assay type: functional; conditions: U-251, 48 h
MCF7 = assay: Growth inhibition of human MCF7 cells after 3 days by MTT assay; assay type: functional; conditions: MCF7, 72 h
[10] = Growth inhibition of human Caki1 cells after 48 hrs by sulforhodamine B assay; assay type: functional; conditions: CAKI-1, 48 h
[11] = Growth inhibition of human HOP62 cells after 48 hrs by sulforhodamine B assay; assay type: functional; conditions: HOP-62, 48 h
[12] = Growth inhibition of human SF295 cells after 48 hrs by sulforhodamine B assay; assay type: functional; conditions: SF-295, 48 h
MDA-MB-435 = assay: Growth inhibition of human MDA-MB-435 cells after 72 hrs by MTT assay; assay type: functional; conditions: MDA-MB-435, 72 h
HUVEC = assay: Inhibition of cell invasion of HUVEC at 1 uM after 24 hrs by crystal violet staining based Boyden chamber assay; assay type: functional; conditions: Homo sapiens

COc1ccc(-c2nnc3n(C)c(=O)c4ccccc4n23)cc1OC
inhibition at 10 µM (HT-29 [1]): 1%
IC50 (Tubulin): > 10000 nM

COc1ccc(/C=C\c2cc(OC)c(OC)c(OC)c2)cc1O [COMBRETASTATIN A4]
GI50 [2]: 1 nM
GI50 [3]: 221 nM
GI50 [4]: 4 nM
GI50 (A498): 6 nM
GI50 (A549): 16 nM
GI50 (HT-29 [5]): 118 nM
GI50 (K562): 2 nM
GI50 [6]: 3 nM
GI50 [7]: 8 nM
GI50 (SR): 3 nM
GI50 (NCI-H522): 2 nM
GI50 (SK-MEL-5): 3 nM
GI50 [8]: 2 nM
GI50 [9]: 2 nM
GI50 (U-251): 4 nM
GI50 (MCF7): 18 nM
GI50 [10]: 25 nM
GI50 [11]: 2 nM
GI50 [12]: 4 nM
GI50 (MDA-MB-435): 3 nM

COc1ccc(-c2nnc3[nH]c(=O)c4ccccc4n23)cc1
inhibition at 10 µM (HT-29 [1]): 0%
IC50 (Tubulin): > 10000 nM

COc1ccc(-c2nnc3[nH]c(=O)c4ccccc4n23)cc1OC
inhibition at 10 µM (HT-29 [1]): 0%
IC50 (Tubulin): > 10000 nM

COc1cc2c(Oc3ccc4[nH]c(C)cc4c3F)ncnc2cc1OCCCN1CCCC1 [CEDIRANIB]
inhibition at 1 µM (HUVEC): 74%

Cn1c(=O)c2ccccc2n2c(-c3ccc(O)c(O)c3)nnc12
inhibition at 10 µM (HT-29 [1]): 0%
IC50 (Tubulin): > 10000 nM

COc1cc(-c2nnc3[nH]c(=O)c4ccccc4n23)cc(OC)c1OC
inhibition at 10 µM (HT-29 [1]): 2%
IC50 (Tubulin): > 10000 nM

From ChEMBL document CHEMBL3792284, “Synthesis of triazoloquinazolinone based compounds as tubulin polymerization inhibitors and vascular disrupting agents” (Eur J Med Chem, 2016)
